In patent US4103082A, “Aminocyclitol derivatives and process for producing the same” (priority 1975, dated 1978):
≈ marks a conversion by molar mass, not a printed value.

How the values were obtained:
[1] = system: antibiotic-resistant microorganisms; conditions: J. Antibiotics, 24 (10) 711, (1971); cited from earlier work
[2] = system: Klebsiella 6; assay: paper disk method, inhibitory zone diameter; assay type: cell-based; conditions: Klebsiella, 6, read-out: inhibitory zone diameter
[3] = system: E. coli HL-1629 (Kanamycin-resistant strain); assay: microbe, parasite or virus in culture; assay type: cell-based; conditions: Escherichia coli, read-out: inhibitory zone diameter
[4] = system: Staphylococcus aureus 6538P; assay: paper disk method, inhibitory zone diameter; assay type: cell-based; conditions: read-out: inhibitory zone diameter
[5] = system: Mycobacterium 607; assay: paper disk method, inhibitory zone diameter; assay type: cell-based; conditions: Mycobacterium, 607, read-out: inhibitory zone diameter
[6] = system: Klebsiella 7; assay: paper disk method, inhibitory zone diameter; assay type: cell-based; conditions: Klebsiella, 7, read-out: inhibitory zone diameter
[7] = system: E. coli K-12; assay: paper disk method, inhibitory zone diameter; assay type: cell-based; conditions: Escherichia coli, K12, read-out: inhibitory zone diameter
[8] = system: Bacillus subtilis ATCC 6633; assay: paper disk method, inhibitory zone diameter; assay type: cell-based; conditions: ATCC6633, read-out: inhibitory zone diameter
[9] = system: Pseudomonas 1007; assay: paper disk method, inhibitory zone diameter; assay type: cell-based; conditions: Pseudomonas, 1007, read-out: inhibitory zone diameter
[10] = system: E. coli C73-1; assay: antibacterial activity (Minimum Inhibitory Concentration); assay type: cell-based; conditions: Escherichia coli, C731
[11] = system: Proteus species C73-34; assay: as above; assay type: cell-based
[12] = system: Proteus morganii Kono; assay: as above; assay type: cell-based; conditions: Morganella morganii
[13] = system: Shigella dysenteriae Shigae; assay: microbe, parasite or virus in culture; assay type: cell-based
[14] = system: E. coli C73-4; assay: antibacterial activity (Minimum Inhibitory Concentration); assay type: cell-based; conditions: Escherichia coli, C734
[15] = system: Klebsiella pneumoniae; assay: as above; assay type: cell-based
[16] = system: E. coli C73-12; assay: as above; assay type: cell-based; conditions: Escherichia coli, C7312
[17] = system: Enterococcus species C73-17; assay: as above; assay type: cell-based; conditions: Enterococcus, C7317
[18] = system: Enterococcus species C73-33; assay: as above; assay type: cell-based; conditions: Enterococcus, C7333
[19] = system: Proteus species C73-33; assay: as above; assay type: cell-based
[20] = system: Staphylococcus aureus C73-10; assay: as above; assay type: cell-based; conditions: Staphylococcus aureus, C7310
[21] = system: Bacillus subtilis ATCC 6633; assay: as above; assay type: cell-based; conditions: Bacillus subtilis, ATCC6633
[22] = system: Bacillus anthracis No. 119; assay: microbe, parasite or virus in culture; assay type: cell-based
[23] = system: Proteus species C73-23; assay: antibacterial activity (Minimum Inhibitory Concentration); assay type: cell-based
[24] = system: Vibrio parahaemolyticus K-5; assay: as above; assay type: cell-based; conditions: Vibrio parahaemolyticus, K5
[25] = system: Vibrio parahaemolyticus K-7; assay: as above; assay type: cell-based; conditions: Vibrio parahaemolyticus, K7
[26] = system: Staphylococcus aureus 209P JC-1; assay: as above; assay type: cell-based; conditions: Staphylococcus aureus, 209P
[27] = system: Staphylococcus aureus C73-4; assay: as above; assay type: cell-based; conditions: Staphylococcus aureus, C734
[28] = system: Staphylococcus albus PCI-1200A; assay: as above; assay type: cell-based; conditions: Staphylococcus, PCI1200A
[29] = system: Staphylococcus aureus No. 26; assay: as above; assay type: cell-based; conditions: Staphylococcus aureus, NO.26
[30] = system: Salmonella species C73-30; assay: as above; assay type: cell-based; conditions: C7330
[31] = system: Proteus species C73-25; assay: as above; assay type: cell-based
[32] = system: Staphylococcus aureus Smith S-424; assay: as above; assay type: cell-based; conditions: Staphylococcus aureus, SMITHS424
[33] = system: Vibrio parahaemolyticus K-3; assay: as above; assay type: cell-based; conditions: Vibrio parahaemolyticus, K3
[34] = system: Staphylococcus aureus C73-21; assay: as above; assay type: cell-based; conditions: Staphylococcus aureus, C7321

NC[C@@H]1CC[C@@H](N)[C@@H](O[C@H]2[C@H](O)[C@@H](O)[C@H](N)C[C@@H]2N)O1 [3',4'-deoxyneamine]
antimicrobial activities against antibiotic-resistant microorganisms [1]: exhibits antimicrobial activities against various antibiotic-resistant microorganisms

NC[C@H]1O[C@H](O[C@H]2[C@H](O)[C@@H](O)[C@H](N)C[C@@H]2N)[C@H](N)[C@@H](O)[C@@H]1O [Neamine, neamine, reference compound]
zone of inhibition at 2000 µg/mL [2]: 0 mm
zone of inhibition at 1000 µg/mL [3]: 0 mm
zone of inhibition at 2000 µg/mL [3]: 12.3 mm
zone of inhibition at 7.8 µg/mL [4]: 0 mm
zone of inhibition at 15.6 µg/mL [4]: 0 mm
zone of inhibition at 31.2 µg/mL [4]: 0 mm
zone of inhibition at 62.5 µg/mL [4]: 10 mm
zone of inhibition at 125 µg/mL [4]: 13 mm
zone of inhibition at 250 µg/mL [4]: 15.3 mm
zone of inhibition at 500 µg/mL [4]: 18.3 mm
zone of inhibition at 1000 µg/mL [4]: 20.7 mm
zone of inhibition at 2000 µg/mL [4]: 22.8 mm
zone of inhibition at 62.5 µg/mL [5]: 0 mm
zone of inhibition at 125 µg/mL [5]: 0 mm
zone of inhibition at 250 µg/mL [5]: 14.8 mm
zone of inhibition at 500 µg/mL [5]: 20.4 mm
zone of inhibition at 1000 µg/mL [5]: 26.4 mm
zone of inhibition at 2000 µg/mL [5]: 32.5 mm
zone of inhibition at 2000 µg/mL [6]: 0 mm
zone of inhibition at 7.8 µg/mL [7]: 0 mm
zone of inhibition at 15.6 µg/mL [7]: 0 mm
zone of inhibition at 31.2 µg/mL [7]: 11.4 mm
zone of inhibition at 62.5 µg/mL [7]: 14.3 mm
zone of inhibition at 125 µg/mL [7]: 17.2 mm
zone of inhibition at 250 µg/mL [7]: 20.4 mm
zone of inhibition at 500 µg/mL [7]: 22.6 mm
zone of inhibition at 1000 µg/mL [7]: 25.2 mm
zone of inhibition at 2000 µg/mL [7]: 27.4 mm
zone of inhibition at 7.8 µg/mL [8]: 11.5 mm
zone of inhibition at 15.6 µg/mL [8]: 14 mm
zone of inhibition at 31.2 µg/mL [8]: 17 mm
zone of inhibition at 62.5 µg/mL [8]: 19.9 mm
zone of inhibition at 125 µg/mL [8]: 23 mm
zone of inhibition at 250 µg/mL [8]: 25 mm
zone of inhibition at 500 µg/mL [8]: 28.7 mm
zone of inhibition at 1000 µg/mL [8]: 31 mm
zone of inhibition at 2000 µg/mL [8]: 33.5 mm
zone of inhibition at 2000 µg/mL [9]: 0 mm

NC[C@H]1O[C@H](O[C@H]2[C@H](O)[C@@H](O)[C@H](N)C[C@@H]2N)[C@H](N)[C@@H](O)[C@@H]1O [Neomycin A, reference compound]
MIC [10]: 25 µg/mL (≈ 77.6 µM)
MIC [11]: 25 µg/mL (≈ 77.6 µM)
MIC [12]: 12.5 µg/mL (≈ 38.8 µM)
MIC [13]: 12.5 µg/mL (≈ 38.8 µM)
MIC [14]: 25 µg/mL (≈ 77.6 µM)
MIC [15]: 12.5 µg/mL (≈ 38.8 µM)
MIC [16]: 12.5 µg/mL (≈ 38.8 µM)
MIC [17]: 100 µg/mL (≈ 310 µM)
MIC [18]: 12.5 µg/mL (≈ 38.8 µM)
MIC [19]: 100 µg/mL (≈ 310 µM)
MIC [20]: 3.13 µg/mL (≈ 9.71 µM)
MIC [21]: 1.56 µg/mL (≈ 4.84 µM)
MIC [22]: 12.5 µg/mL (≈ 38.8 µM)
MIC [23]: 25 µg/mL (≈ 77.6 µM)
MIC [24]: 50 µg/mL (≈ 155 µM)
MIC [25]: 50 µg/mL (≈ 155 µM)
MIC [26]: 0.78 µg/mL (≈ 2.42 µM)
MIC [27]: 3.13 µg/mL (≈ 9.71 µM)
MIC [28]: 0.78 µg/mL (≈ 2.42 µM)
MIC [29]: 3.13 µg/mL (≈ 9.71 µM)
MIC [30]: 25 µg/mL (≈ 77.6 µM)
MIC [31]: 6.25 µg/mL (≈ 19.4 µM)
MIC [32]: 1.56 µg/mL (≈ 4.84 µM)
MIC [33]: 1.56 µg/mL (≈ 4.84 µM)
MIC [34]: 0.78 µg/mL (≈ 2.42 µM)
